# Values quoted from earlier work in article PMC3736096 (Nature, 2013).
row,SMILES,blood-brain barrier penetration
1,COc1ccc(S(=O)(=O)Nc2nc(-c3cccc([N+](=O)[O-])c3)c(CN3CCCCC3)s2)cc1OC [JM6],do not appreciably penetrate the blood-brain barrier
2,"COc1ccc(S(=O)(=O)Nc2nc(-c3cccc([N+](=O)[O-])c3)cs2)cc1OC [Ro 61-8048, 3,4-dimethoxy-[-N-4-(nitrophenyl)thiazol-2yl]-benzenesulfonamide]",do not appreciably penetrate the blood-brain barrier
